Patent US9624184B2, “Heterocyclic compound” (TAKEDA PHARMACEUTICAL COMPANY LIMITED, priority 2013, dated 2017)

Key:
human CH24H = biological target: T1, human CH24H (Homo sapiens, UniProt Q9Y6A2); assay: Measurement of CH24H inhibitory activity (24-HC produced from [14C] cholesterol by human CH24H lysate); type: biochemical; conditions: 1 μM test compound, [14C] cholesterol 15 μM, 37° C. for 5 hr, read-out: Inhibitory Rate in 1 μM (%)
T1 construct: Using Full-Length Mammalian Gene Collection No. 4819975 (Invitrogen) as a template; made in house; host or cells: FreeStyle 293-F cells (transient transfection with pcDNA3.1(+)/hCH24H); cell lysate supernatant
T1 sequence (Q9Y6A2 whole entry): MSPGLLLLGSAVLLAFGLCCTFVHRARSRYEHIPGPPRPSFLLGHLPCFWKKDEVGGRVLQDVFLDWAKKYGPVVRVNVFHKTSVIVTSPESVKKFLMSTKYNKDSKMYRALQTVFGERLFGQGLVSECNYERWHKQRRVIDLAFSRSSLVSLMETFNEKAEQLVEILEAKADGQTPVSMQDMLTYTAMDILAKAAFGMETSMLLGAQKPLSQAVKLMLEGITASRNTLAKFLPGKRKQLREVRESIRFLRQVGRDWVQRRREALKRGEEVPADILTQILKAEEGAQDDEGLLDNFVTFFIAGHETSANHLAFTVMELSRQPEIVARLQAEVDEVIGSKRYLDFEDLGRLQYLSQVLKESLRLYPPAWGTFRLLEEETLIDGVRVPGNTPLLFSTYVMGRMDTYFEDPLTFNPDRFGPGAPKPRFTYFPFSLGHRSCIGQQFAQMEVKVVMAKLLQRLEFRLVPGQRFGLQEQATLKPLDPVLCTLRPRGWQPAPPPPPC
Protocol: A plasmid DNA for expressing human CH24H in a FreeStyle 293 cell was produced as follows. Using Full-Length Mammalian Gene Collection No. 4819975 (Invitrogen) as a template, and the following two kinds of synthesized DNAs: 5′-[…]-3′ (SEQ ID NO: 1) and 5′-[…]-3′ (SEQ ID NO: 2), PCR was performed to amplify 91-1625 bp region of human CH24H (BC022539). The obtained fragment was cloned using TOPO TA Cloning Kit (Invitrogen). The obtained fragment was subcloned to pcDNA3.1(+) digested with BamHI and XhoI to give a plasmid DNA for human CH24H expression (pcDNA3.1(+)/hCH24H).
The expression of human CH24H was performed using FreeStyle 293 Expression System (Invitrogen). According to the manual attached to FreeStyle 293 Expression System and using the plasmid DNA for human CH24H expression (pcDNA3.1(+)/hCH24H) constructed in Experimental Example 1, a transient expression using FreeStyle 293-F cell was performed. After transfection, the cells were cultured at 37° C., 8% CO2 with shaking at 125 rpm for 2 days. The cells were collected by centrifugation, and suspended in a suspension buffer (100 mM potassium phosphate (pH 7.4), 0.1 mM EDTA, 1 mM DTT, 20% Glycerol). The suspended product was disrupted by a polytron homogenizer (manufactured by Kinematica), and centrifuged at 9000×g for 10 min, and the supernatant was collected. The collected supernatant was cryopreserved (−80° C.) as a human CH24H lysate standard product.
For the measurement of CH24H inhibitory activity, using the human CH24H lysate prepared in Experimental Example 2, the amount of 24-HC produced from cholesterol by catalytic activity of CH24H was measured in the presence of a test compound, and compared with that measured in the absence of the test compound. That is, a test compound solution at various concentrations was mixed with a reaction buffer (50 mM potassium phosphate containing 0.1% BSA and Complete, EDTA-free, pH 7.4) and human CH24H lysate. Then, [^14C] cholesterol (53 mCi/mmol specific activity, 15 μM) was added, and CH24H reaction was performed at 37° C. for 5 hr. After completion of the reaction, a quenching solution consisting of chloroform/methanol/distilled water (2:2:1 v/v) was added, and the resulting 24-HC was extracted by shaking. The extract was applied to silica gel thin layer chromatography (ethyl acetate:toluene=4:6), and the obtained ^14C-24HC fraction was measured with BAS2500 (Fujifilm Corporation).
The inhibitory rate (%) was calculated from the ratio of radioactivity in the presence of a test compound relative to the radioactivity in the absence of the test compound.

24-HC in the brain = assay: Quantification test of 24-HC in mouse brain after repeated oral administration; type: in vivo; conditions: female C57BL/6N mice, brain 24-HC at 16 hours after the third administration, relative values with the control group as 100%; for Decreasing Rate in 30 mg/kg (%): 30 mg/kg orally once a day for 3 days; for Decreasing Rate in 10 mg/kg (%): 10 mg/kg orally once a day for 3 days
Protocol: Animals used were 6-week-old female C57BL/6N mice (3 mice/group). A test compound was suspended in a 0.5% aqueous methylcellulose [133-14255 WAKO] solution (1 mg/mL). The body weight of the mice was measured, and the solution was forcibly administered orally and repeatedly once a day for 3 days. At 16 hours after the third administration, half of the brain was harvested, and the amount of 24-HC was measured.
The wet weight of the brain was measured, and the brain was homogenized with 4-fold amount of saline. This solution was used as a brain extract. The 24-HC in the brain extract was extracted with an acetonitrile solution (98% acetonitrile, 1.98% methanol, 0.02% formic acid), and quantified by HPLC. The average value of 24-HC amount was calculated and the results are shown in relative values with the control group as 100%.

Row | inhibition at 1 µM (human CH24H) [%] | SMILES | Decreasing Rate in 30 mg/kg (%) (24-HC in the brain) | Decreasing Rate in 10 mg/kg (%) (24-HC in the brain)
1 | 84 | O=C(Nc1cc2c(c(-c3cnco3)c1)OCC2)C1CC1 [Example 58, N-(7-(1,3-oxazol-5-yl)-2,3-dihydro-1-benzofuran-5-yl)cyclopropanecarboxamide] | – | –
2 | 91 | OC1CCN(c2cc(C(F)(F)F)cc(-c3cnco3)n2)C1 (stereo not drawn) [Example 96, 1-(6-(1,3-oxazol-5-yl)-4-(trifluoromethyl)pyridin-2-yl)pyrrolidin-3-ol] | – | –
3 | 89 | CC(C)c1cc(NS(=O)(=O)c2cccc(Cl)c2)cc(-c2cnco2)c1 [Example 4, 3-chloro-N-(3-isopropyl-5-(1,3-oxazol-5-yl)phenyl)benzenesulfonamide] | – | –
4 | 92 | O=C(C1CC1)N1CCOc2c(-c3cnco3)cc(C(F)(F)F)cc21 [Example 54, cyclopropyl(8-(1,3-oxazol-5-yl)-6-(trifluoromethyl)-2,3-dihydro-4H-1,4-benzoxazin-4-yl)methanone] | – | –
5 | 89 | O=C(Nc1cc(-c2cnco2)cc(C(F)(F)F)c1)c1cccc(Cl)c1 [Example 1, 3-chloro-N-(3-(1,3-oxazol-5-yl)-5-(trifluoromethyl)phenyl)benzamide] | – | –
6 | 89 | CC1(C)CCN(c2cc(C(F)(F)F)cc(-c3cnco3)n2)C1=O [Example 134, 3,3-dimethyl-1-(6-(1,3-ozazol-5-yl)-4-(trifluoromethyl)pyridin-2-yl)pyrrolidin-2-one] | – | –
7 | 83 | O=S(=O)(Nc1cc2c(c(-c3cnco3)c1)OCC2)c1cccc(Cl)c1 [Example 10, 3-chloro-N-(7-(1,3-oxazol-5-yl)-2,3-dihydro-1-benzofuran-5-yl)benzenesulfonamide] | – | –
8 | 88 | O=C(Nc1cc(C(F)(F)F)cc(-c2cnco2)n1)C1CC1 [Example 61, N-(6-(1,3-oxazol-5-yl)-4-(trifluoromethyl)pyridin-2-yl)cyclopropanecarboxamide] | – | –
9 | 97 | O=C(N1CCc2c(-c3cnco3)cc(C(F)(F)F)cc21)N1C[C@@H]2C[C@H]1CO2 [Example 128, (1S,4S)-2-oxa-5-azabicyclo[2.2.1]hept-5-yl(4-(1,3-oxazol-5-yl)-6-(trifluoromethyl)-2,3-dihydro-1H-indol-1-yl)methanone] | – | –
10 | 52 | O=C(C1CC1)N1CCCOc2c(-c3cnco3)cc(C(F)(F)F)cc21 [Example 53, cyclopropyl(9-(1,3-oxazol-5-yl)-7-(trifluoromethyl)-3,4-dihydro-1,5-benzoxazepin-5(2H)-yl)methanone] | – | –
11 | 91 | CC(=O)N1CCN(c2cc(-c3cnco3)cc(C(F)(F)F)c2)CC1 [Example 107, 1-(4-(3-(1,3-oxazol-5-yl)-5-(trifluoromethyl)phenyl)piperazin-1-yl)ethanone] | – | –
12 | 90 | O=C(Cn1ccnc1)Nc1cc(-c2cnco2)cc(C(F)(F)F)c1 [Example 43, 2-(1H-imidazol-1-yl)-N-(3-(1,3-oxazol-5-yl)-5-(trifluoromethyl)phenyl)acetamide] | – | –
13 | 97 | OC1CN(c2cc(-c3cnco3)cc(C(F)(F)F)c2)CCC1Cc1ccccc1 (stereo not drawn) [Example 100, 4-benzyl-1-(3-(1,3-oxazol-5-yl)-5-(trifluoromethyl)phenyl)piperidin-3-ol] | – | –
14 | 91 | CC1(C)CCN(c2cc(-c3cnco3)cc(C(F)(F)F)c2)C1=O [Example 127, 3,3-dimethyl-1-(3-(1,3-oxazol-5-yl)-5-(trifluoromethyl)phenyl)pyrrolidin-2-one] | – | –
15 | 90 | O=C(Nc1cc(-c2cnco2)cc(C(F)F)c1)C1CC1 [Example 31, N-(3-(difluoromethyl)-5-(1,3-oxazol-5-yl)phenyl)cyclopropanecarboxamide] | – | –
16 | 79 | O=C(Nc1cc(-c2cnco2)cc(C2CC2)c1)c1cccc(Cl)c1 [Example 5, 3-chloro-N-(3-cyclopropyl-5-(1,3-oxazol-5-yl)phenyl)benzamide] | – | –
17 | 96 | O[C@H]1CCN(c2cc(-c3cnco3)cc(C(F)(F)F)c2)C1 [Example 95, (3S)-1-(3-(1,3-oxazol-5-yl)-5-(trifluoromethyl)phenyl)pyrrolidin-3-ol] | 66 | –
18 | 95 | CS(=O)(=O)NC1CCN(c2cc(-c3cnco3)cc(C(F)(F)F)c2)C1 (stereo not drawn) [Example 119, N-(1-(3-(1,3-oxazol-5-yl)-5-(trifluoromethyl)phenyl)pyrrolidin-3-yl)methanesulfonamide] | – | –
19 | 93 | FC1(F)CCN(c2cc(-c3cnco3)cc(C(F)(F)F)c2)CC1 [Example 89, 4,4-difluoro-1-(3-(1,3-oxazol-5-yl)-5-(trifluoromethyl)phenyl)piperidine] | – | –
20 | 88 | FC(F)(F)c1cc(NCc2ccccn2)cc(-c2cnco2)c1 [Example 56, 3-(1,3-oxazol-5-yl)-N-(pyridin-2-ylmethyl)-5-(trifluoromethyl)aniline] | – | –
21 | 92 | O=C(N1CCOCC1)N1CCc2c(-c3cnco3)cc(C(F)(F)F)cc21 [Example 83, morpholin-4-yl(4-(1,3-oxazol-5-yl)-6-(trifluoromethyl)-2,3-dihydro-1H-indol-1-yl)methanone] | – | –
22 | 89 | OC1(Cc2ccccc2)CCN(c2cc(-c3cnco3)cc(C(F)(F)F)c2)CC1 [Example 92, 4-benzyl-1-(3-(1,3-oxazol-5-yl)-5-(trifluoromethyl)phenyl)piperidin-4-ol] | – | –
23 | 91 | CC(C)C(=O)N1CCc2c(-c3cnco3)cc(C(F)(F)F)cc21 [Example 80, 2-methyl-1-(4-(1,3-oxazol-5-yl)-6-(trifluoromethyl)-2,3-dihydro-1H-indol-1-yl)propan-1-one] | – | –
24 | 92 | O=C(C1CC1)N1CCc2c(-c3cnco3)cc(C(F)(F)F)cc21 [Example 36, cyclopropyl(4-(1,3-oxazol-5-yl)-6-(trifluoromethyl)-2,3-dihydro-1H-indol-1-yl)methanone] | – | 73
25 | 97 | O=C(C1CCOCC1)N1CCc2c(-c3cnco3)cc(C(F)(F)F)cc21 [Example 87, (4-(1,3-oxazol-5-yl)-6-(trifluoromethyl)-2,3-dihydro-1H-indol-1-yl)(tetrahydro-2H-pyran-4-yl)methanone] | 56 | –
26 | 89 | O=C(Nc1cc(-c2cnco2)cc(C(F)(F)F)c1)C1CC1 [Example 17, N-(3-(1,3-oxazol-5-yl)-5-(trifluoromethyl)phenyl) cyclopropanecarboxamide] | – | 80
